Test results: US5869494A, “Uses for barbituric acid analogs” (priority 1997, dated 1999)
Where two headings read alike, the source gives them in different places.

Key:
[1] = system: human breast cancer MCF-7 cells; test: Inhibition of clonogenic growth of breast cancer cells; type: cell-based; details: for No. of Colonies (Mean ± S.D.): control 158.5 ± 12.2
Description: After additional incubation periods of 24 h and 48 h, cells were washed to remove the drug and were allowed to grow at 37° C. in a CO2 incubator. After 10 days, colonies consisting of 50 or more cells were counted.

[2] = system: human prostate tumors; test: Established human prostate tumors implanted in mice, intramuscular treatment; type: in vivo; details: 100 mg/kg intramuscular, alternate days, after 5 weeks
Description: Similar experiments were carried out where implanted human prostate tumors (2×2 mm) were allowed to become established. Eight days later, the tumor size was ≈5×5 mm. Treatment was initiated which consisted of intramuscular injections of C1 (100 mg/kg) given on alternate days. After 5 weeks of treatment, tumors were not detectable by palpation in 2 of 3 animals. […] Untreated control mice (n=3), had tumors at 5 weeks of average size of 10×9mm.

[3] = system: lung carcinoma (non-small cell); test: Human tumor cloning system, lung carcinoma (non-small cell); type: cell-based; details: responsive = at least 50% inhibition of tumor colony formation
Description: (§1) Through the initial work of Hamburger and Salmon (1977 a,b), it is possible to culture human tumors using a two-layer soft agar system. This culture system, called the human tumor cloning system, was initially utilized to select the most appropriate anticancer agent for an individual patient's tumor. […] In an in vitro-in vivo correlation study involving 800 patients retrospectively, it was determined that the true positive rate for this assay was 70%, while the true negative rate for the assay was 98% (Von Hoff et al., 1981). In a more recent prospective clinical trial of the cloning system involving 604 patients, the percent true positive for the assay was 64%, while the percent true negative for the assay was 86% (Von Hoff et al., 1983). […] This system was used to study the response of compound C1 for breast cancer and non-small cell lung carcinoma.
(§2) Collection and preparation of tumor cells: After obtaining informed consent in accordance with federal and institutional guidelines, malignant effusions, ascites and bone marrow aspirates containing tumor cells as well as solid tumor specimens were collected from patients undergoing procedure carried out as a part of their diagnostic workup or as part of treatment for their disease. […] The viability of cell suspensions thus obtained was determined with trypan blue.
(§3) Tumor cells to be cloned were suspended in 0.3% agar in enriched CMRL 1066 medium (Gibco, Grand Island, N.Y.) supplemented with 15% heat-inactivated horse serum, penicillin (100 units/ml), streptomycin (2 mg/ml) glutamine (2 mM), insulin (3 units/ml), asparagine (0.6 mg/ml), and HEPES buffer (2 mM). […] After an incubation period of 14 days, plates were removed and the number of colonies were counted in each plate. The number of colonies (defined as >50 cells) formed were compared in drug treated and untreated (control) plates and the percent colonies surviving at each drug dose tested was then calculated as a percentage of control. […]

[4] = Alleviation of depression in HIV-1 positive subjects; type: in vivo, human; details: 4.3 mg/kg for 15 days; three HIV-1 positive subjects
[5] = system: human fibrosarcoma HT-1080 cells; test: Effect on human fibrosarcoma HT-1080 cells (trypan blue dye exclusion); type: cell-based; details: for viability at 25 µg/mL / viability at 50 µg/mL / viability at 100 µg/mL / viability at 150 µg/mL: HT-1080, read-out: Percent survival; for viability at 25 µg/mL: 25 μg/ml; for viability at 50 µg/mL: 50 μg/ml
Description: Human fibrosarcoma cells were cultured in Minimum essential medium (Eagle) with non-essential amino acids and Earls balanced salt solution supplemented with 10% heat-inactivated fetal bovine serum. Cells (5×10^3 in 0.5 ml of growth medium) were plated in 16 well plates and incubated at 37° C. in a humidified atmosphere of 5% CO2 in air for 24 h. Cells were then treated with different doses of C1. Control wells received vehicle only (<0.5% ethanol in saline). After further incubation periods of 24 and 48 h, the viability of cells was determined by trypan blue dye exclusion method.

[6] = system: breast tumor; test: Human tumor cloning system, breast tumors; type: cell-based; details: responsive = at least 50% inhibition of tumor colony formation
Description: as §1, §2, §3

[7] = Homo sapiens, 24 h, control 92.3 ± 3.1
[8] = Homo sapiens, 48 h, control 92.4 ± 3.1

SMILES: CCCCN1C(=O)CC(=O)N(CCCC)C1=S [Compound C1, 4,6(1H, 5H)-pyrimidinedione, 1,3-dibutyldihydro-2-thioxo]
- No. of Colonies (Mean ± S.D.) ([1]; 20 μg/ml, 24 hr): 24.5 ± 7.8
- No. of Colonies (Mean ± S.D.) ([1]; 20 μg/ml, 48 hr): 24.5 ± 6.1
- No. of Colonies (Mean ± S.D.) ([1]; 40 μg/ml, 24 hr): 13.5 ± 5.1
- No. of Colonies (Mean ± S.D.) ([1]; 40 μg/ml, 48 hr): 11.7 ± 1.2
- No. of Colonies (Mean ± S.D.) ([1]; 80 μg/ml, 24 hr): 3.0 ± 2.2
- No. of Colonies (Mean ± S.D.) ([1]; 80 μg/ml, 48 hr): 0 ± 0
- inhibition at 20 µg/mL ([1]; Homo sapiens, MCF7, 20 μg/ml, read-out: Percent Reduction (of colonies)): 84.5%
- inhibition at 40 µg/mL ([1]; Homo sapiens, MCF7, 40 μg/ml, read-out: Percent Reduction (of colonies)): 92.6%
- inhibition at 80 µg/mL ([1]; Homo sapiens, MCF7, 80 μg/ml, read-out: Percent Reduction (of colonies)): 100%
- tumor cell clonogenic growth ([1]; under the conditions employed): virtually complete elimination of tumor cell clonogenic growth
- tumors not detectable by palpation [2]: 2 of 3
- # responsive tumors/total # evaluated ([3]; 75 μg/ml): 0/1
- # responsive tumors/total # evaluated ([3]; 100 μg/ml): 1/1
- # responsive tumors/total # evaluated ([3]; 125 μg/ml): 1/1
- symptoms reported by subjects [4]: alleviation from lethargy, depression and an increased appetite, feeling of being happy, and desire to live
- fibrosarcoma cells killed ([5]; 25 μg/ml (lowest dose), 48 h): virtually all fibrosarcoma cells were killed
- fibrosarcoma cells killed ([5]; 100 μg/ml, 24 h): Virtually all fibrosarcoma cells were killed
- fibrosarcoma cells killed ([5]; 150 μg/ml, 24 h): Virtually all fibrosarcoma cells were killed
- cytotoxicity at 50 µg/mL ([5]; Homo sapiens, HT-1080, 24 h, read-out: cells killed): > 92%
- viability at 25 µg/mL [5, 7]: 0.03 ± 0.03%
- viability at 25 µg/mL [5, 8]: 0%
- viability at 50 µg/mL [5, 7]: 0.03 ± 0.03%
- viability at 50 µg/mL [5, 8]: 0%
- viability at 100 µg/mL ([5]; Homo sapiens, 100 μg/ml, 24 h, control 92.3 ± 3.1): 0%
- viability at 100 µg/mL ([5]; Homo sapiens, 100 μg/ml, 48 h, control 92.4 ± 3.1): 0%
- viability at 150 µg/mL ([5]; Homo sapiens, 150 μg/ml, 24 h, control 92.3 ± 3.1): 0%
- viability at 150 µg/mL ([5]; Homo sapiens, 150 μg/ml, 48 h, control 92.4 ± 3.1): 0%
- # responsive tumors/total # evaluated ([6]; 75 μg/ml): 3/8
- # responsive tumors/total # evaluated ([6]; 100 μg/ml): 4/8
- # responsive tumors/total # evaluated ([6]; 125 μg/ml): 6/8
